# From publication PMC8353353, “Assessing reversible and irreversible binding effects of kinase covalent inhibitors through ADP-Glo assays” (STAR Protocols, 2021)
# How the values were obtained:
# MKK7 [1] = biological target: T1, MKK7 (Homo sapiens, UniProt O14733, S271D/T275D); assay: ADP-Glo assay with kinase-inhibitor pre-incubation step (phosphorylation of cov-JNK3 substrate by MKK7); type: biochemical; details: for luminescence intensity: raw data; for Normalized Intensity (%): normalized to Control DMSO only and Control No kinase
# T1 construct: Recombinant MKK7 (full-length, S287D/T291D); made in house
# T1 sequence (O14733 1-435 isoform O14733-3 S287D/T291D): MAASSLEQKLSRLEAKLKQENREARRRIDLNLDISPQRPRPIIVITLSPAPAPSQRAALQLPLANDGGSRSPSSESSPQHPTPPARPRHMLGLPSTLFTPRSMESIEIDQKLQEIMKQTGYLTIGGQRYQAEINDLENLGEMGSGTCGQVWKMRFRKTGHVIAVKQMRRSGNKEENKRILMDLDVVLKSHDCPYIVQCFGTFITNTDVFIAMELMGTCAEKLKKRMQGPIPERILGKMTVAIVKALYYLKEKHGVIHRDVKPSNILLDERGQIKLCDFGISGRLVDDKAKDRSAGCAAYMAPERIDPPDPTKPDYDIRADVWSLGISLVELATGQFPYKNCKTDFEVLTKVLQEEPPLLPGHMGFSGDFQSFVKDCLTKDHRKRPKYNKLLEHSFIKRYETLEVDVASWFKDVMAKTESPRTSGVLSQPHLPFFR
# Procedure: The protocol described here uses Echo® 550 liquid handler. However, when performing with manual pipetting, adjusting pipetting volume of each component of the kinase reaction is required with an example provided in the above table. We had performed the following protocol using both pipetting methods, and observed similar assay quality with an example shown in Figure 3.
# This part of the protocol describes a variation of the ADP-Glo^TM assay that includes a pre-incubation step between the tested inhibitors and MKK7 prior to an addition of ATP (Figure 4). […] Thus, apparent greater inhibitory potencies would be expected. The protocol below describes an experiment testing three inhibitors using fixed concentrations of 25 nM for MKK7 kinase, 30 μM for cov-JNK3 substrate and 100 μM for ATP with the layout of the assay plate shown in Figure 5. • 1. Thaw ADP-Glo^TM assay reagents. Place 10 mM ultra-pure ATP immediately on ice, while the other reagents can be kept at 22°C–25°C. • 2. Quick thaw MKK7 kinase and 10× cov-JNK3 substrate and spin both using benchtop centrifuge at high speed at 4°C for 10 min. Transfer clear supernatant into a new tube and keep on ice. • 3. Prepare 75 μL of 10× MKK7 kinase solution by diluting MKK7 to 250 nM in protein storage buffer. Keep the solution on ice until further use. • 4. Prepare the following mixtures and keep them on ice until further use. • a. Mixture 1: one part of 10× MKK7 kinase solution, one part of 10× cov-JNK3 substrate and eight part of the reaction buffer. For example, 500 μL of Mixture 1 contains 50 μL of 10× MKK7 kinase solution, 50 μL of 10× cov-JNK3 substrate and […] of the reaction buffer. This 500-μL Mixture 1 is adequate for approximately 100 reactions and will be used for the reactions containing inhibitors and the “Control DMSO only” wells (see Figure 5). • b. Mixture 2: one part of protein storage buffer, one part of 10× cov-JNK3 substrate and eight part of the reaction buffer. For example, 50 μL of Mixture 2 is made from 5 μL of protein storage buffer, 5 μL of 10× cov-JNK3 substrate and 45 μL of the reaction buffer. This 50-μL Mixture 2 is adequate for 10 reactions and is for the “Control No kinase” wells (see Figure 5). • c. Mixture 3: one part of 10× MKK7 kinase solution, one part of protein storage buffer and eight part of the reaction buffer. For example, 50 μL of Mixture 3 is made from 5 μL of 10× MKK7 kinase solution, 5 μL of protein storage buffer and 45 μL of reaction buffer. This 50-μL Mixture 3 is adequate for 10 reactions and is for the “Control No substrate” wells (see Figure 5) • 5. Prepare a serial dilution of inhibitors in a 384-well assay plate using the “Dose response” setting in Echo®550 acoustic liquid handler according to the manufacture’s manual. For this experiment, the dilution series of three inhibitors at 11 concentrations is prepared by the following steps (see also Figure 5 and Data S1 for an example input for Echo® dose response pipetting): • a. Prepare 5 mM inhibitor stock solutions in DMSO and transfer 25 μL of each into three different wells of an Echo® source plate. Fill the 4th well with 30 μL DMSO. • b. Use the “Dose response” program in Echo® 550 liquid handler with a DMSO backfill option to aliquot the correct volumes of the inhibitors and DMSO into each reaction wells in the assay plate according to the plate layout in Figure 5. Note that two intermediate compound dilutions will be created by the ECHO® dose response program (see Data S1 for an example input for Echo® dose response pipetting). 50 nL of DMSO should be transferred to each control well to ensure homogeneous assay conditions. The total transfer volume of 50 nL of either inhibitor alone, inhibitor plus DMSO or DMSO alone is fixed to ensure constant 1% final DMSO concentration (see Data S1 for an example input for Echo® dose response pipetting). • 6. […]
# MKK7 [2] = biological target: T1, MKK7; design: method as in Schröder et al., 2020; details: with vs without kinase-inhibitor pre-incubation; Figure 6; ref Schröder et al., 2020; cited from earlier work
# [3] = [Inhibitor] 1.49E-05 M (log -4.83)
# [4] = [Inhibitor] 1.65E-08 M (log -7.78)
# [5] = [Inhibitor] 1.65E-09 M (log -8.78)
# [6] = [Inhibitor] 2.43E-10 M (log -9.62)
# [7] = [Inhibitor] 2.91E-07 M (log -6.54)
# [8] = [Inhibitor] 4.95E-05 M (log -4.31)
# [9] = [Inhibitor] 4.95E-06 M (log -5.31)
# [10] = [Inhibitor] 4.95E-09 M (log -8.31)
# [11] = [Inhibitor] 8.08E-10 M (log -9.09)
# [12] = [Inhibitor] 8.08E-11 M (log -10.09)
# [13] = [Inhibitor] 9.71E-07 M (log -6.01)
# [14] = [Inhibitor] 9.71E-08 M (log -7.01)
SMILES,luminescence intensity (MKK7 [1]; [3]),luminescence intensity (MKK7 [1]; [4]),luminescence intensity (MKK7 [1]; [5]),luminescence intensity (MKK7 [1]; [6]),luminescence intensity (MKK7 [1]; [7]),luminescence intensity (MKK7 [1]; [8]),luminescence intensity (MKK7 [1]; [9]),luminescence intensity (MKK7 [1]; [10]),luminescence intensity (MKK7 [1]; [11]),luminescence intensity (MKK7 [1]; [12]),luminescence intensity (MKK7 [1]; [13]),luminescence intensity (MKK7 [1]; [14]),Normalized Intensity (%) (MKK7 [1]; log[Inhibitor] -4.31),Normalized Intensity (%) (MKK7 [1]; log[Inhibitor] -4.83),Normalized Intensity (%) (MKK7 [1]; log[Inhibitor] -5.31),Normalized Intensity (%) (MKK7 [1]; log[Inhibitor] -6.01),Normalized Intensity (%) (MKK7 [1]; log[Inhibitor] -6.54),Normalized Intensity (%) (MKK7 [1]; log[Inhibitor] -7.01),Normalized Intensity (%) (MKK7 [1]; log[Inhibitor] -7.78),Normalized Intensity (%) (MKK7 [1]; log[Inhibitor] -8.31),also measured
C=CC(=O)N1CCC[C@@H](n2nc(-c3ccc(Oc4ccccc4)cc3)c3c(N)ncnc32)C1 [Ibrutinib],18884,157972,195602,176476,49318,52382,64212,138435,152383,159956,22472,121319,17.05%,-1.74%,23.69%,0.27%,15.33%,55.73%,76.30%,65.34%,Normalized Intensity (%) (MKK7 [1]; log[Inhibitor] -8.78): 97.41%; Normalized Intensity (%) (MKK7 [1]; log[Inhibitor] -9.09): 73.16%; Normalized Intensity (%) (MKK7 [1]; log[Inhibitor] -9.62): 86.68%; Normalized Intensity (%) (MKK7 [1]; log[Inhibitor] -10.09): 77.41%
CC(=O)c1cnc2ccc(-c3cc(Cl)c(O)c(Cl)c3)nc2c1N[C@H]1CC[C@H](CN(C)C)CC1 [OTSSP167],50306,167511,188762,186492,53403,62181,22921,186941,193825,208349,43374,94669,22.55%,15.89%,0.52%,12.00%,17.63%,40.78%,81.65%,92.55%,Normalized Intensity (%) (MKK7 [1]; log[Inhibitor] -8.78): 93.57%; Normalized Intensity (%) (MKK7 [1]; log[Inhibitor] -9.09): 96.42%; Normalized Intensity (%) (MKK7 [1]; log[Inhibitor] -9.62): 92.30%; Normalized Intensity (%) (MKK7 [1]; log[Inhibitor] -10.09): 104.56%; shift of inhibitory potencies (IC50) between the two assay variants (MKK7 [2]): less pronounced
